We go through 1 compound from US20230111656A1, “METHODS OF CONTROLLING OR PREVENTING INFESTATION OF SOYBEAN PLANTS BY THE PHYTOPATHOGENIC MICROORGANISM CORYNESPORA CASSIICOLA” (SYNGENTA CROP PROTECTION AG, priority 2020, published 2023).

The assay concerns Corynespora cassiicola. Nature of the assay: Liquid culture growth inhibition of Corynespora cassiicola (PDB, 96-well microtiter plate, photometric). The following applies: 24 C, 3-4 days, photometric at 620 nm, compared to untreated control. In kind it is cell-based. On the procedure:
Conidia of the fungus from cryogenic storage were directly mixed into nutrient broth (PDB potato dextrose broth). A DMSO solution of the test compounds was placed into a microtiter plate (96-well format) and the nutrient broth containing the fungal spores was added to it. The test plates were incubated at 24 C and the inhibition of growth (% control of Corynespora cassiicola) was determined photometrically after 3-4 days at 620 nm. The activity of a compound is derived by comparing the inhibition of growth in the treated test solution to the growth in the untreated check. The concentration of the compounds was 0.74, 0.25, and 0.082 ppm.

With `CC1(C)N=C(c2cnc3ccccc3c2)c2ccccc2C1(F)F`, the “control of Corynespora cassiicola (inhibition of growth)” value is on record as “at least 20%” (0.082 ppm), “at least 50%” (0.25 ppm) and “at least 70%” (0.74 ppm).
